Results published in article PMC7531004, “Discovery of gramicidin A analogues with altered activities by multidimensional screening of a one-bead-one-compound library” (Nature Communications, 2020).
Where a SMILES comes first, the peptide text is derived from it. [ ]: non-standard residue; d: D form. The star is where a group is joined. NHCH2CH2OH = OCCN*; For = O=C*

Experiments:
[1] = H+/Na+ transport assay of bead-derived peptides (one-point); assay type: biochemical; design: key: relative activity; mean of two control wells = 1.00; conditions: bead-derived peptide solution, EYPC/EYPG LUVs;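 also: relative to parent gramicidin A activity set to 1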
Summary of the method: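 Pyranine (1.0 mM)-loaded LUVs containing egg yolk phosphatidylglycerol were prepared by film hydration, sonication and extrusion, then mixed with diluted bead-derived peptide in 96-well format and vortexed 30 min at room temperature. Fluorescence was normalized between untreated LUVs (0%) and Triton X-100 lysis (100%).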

[2] = cell viability/%
Summary of the method: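 P388 cells at 1 × 10^4 cells/mL (final) were exposed to library peptides (stocks diluted 250-fold in RPMI1640/10% FBS) for 92 h at 37 °C, 5% CO2. Viable cells were counted by WST-1/1-methoxy PMS (4 h), absorbance 415 nm, and expressed as cell viability (%).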

[3] = system: Streptococcus pyogenes SSI-9; experiment: Antibacterial activity assay of bead-derived peptides (three concentrations); assay type: cell-based; design: key: +++: inhibition by the 640-fold diluted peptide solution; ++: inhibition by the 160-fold diluted solution; +: inhibition by the 40-fold diluted solution; -: no inhibition; conditions: S. pyogenes, bead-derived peptide solution, three concentrations
Summary of the method: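 Library peptide stock applied undiluted, 4-fold and 16-fold diluted in DMSO to S. pyogenes SSI-9 (2 × 10^5 CFU) in cation-adjusted Mueller Hinton broth with 5% laked horse blood. After 18 h at 37 °C, growth judged by visible cell precipitation.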

SMILES | H+/Na+ transport activity normalized against the value of 1 (1.00) [1] | viability [2] [%] | antibacterial activity [3]
CC(C)C[C@@H](NC(=O)[C@@H](NC(=O)[C@H](NC(=O)[C@H](C)NC(=O)[C@H](NC(=O)[C@H](C)NC(=O)CNC(=O)[C@@H](NC=O)C(C)C)C(C)C)C(C)C)C(C)C)C(=O)N[C@@H](Cc1c[nH]c2ccccc12)C(=O)N[C@@H](C(=O)N[C@@H](Cc1c[nH]c2ccccc12)C(=O)N[C@@H](C(=O)N[C@@H](Cc1c[nH]c2ccccc12)C(=O)N[C@@H](C(=O)N[C@@H](Cc1c[nH]c2ccccc12)C(=O)NCCO)C(C)C)C(C)C)C(C)C [compound 885] (For-VGA[dV]A[dV]V[dL]W[dV]W[dV]W[dV]W-NHCH2CH2OH) | 1.03 | 93.4 | -
CNC(=O)C[C@@H](NC(=O)[C@@H](NC(=O)[C@H](NC(=O)[C@H](C)NC(=O)[C@H](NC(=O)[C@H](C)NC(=O)CNC(=O)[C@@H](NC=O)C(C)C)C(C)C)C(C)C)C(C)C)C(=O)N[C@@H](Cc1c[nH]c2ccccc12)C(=O)N[C@@H](C(=O)N[C@@H](Cc1c[nH]c2ccccc12)C(=O)N[C@H](CC(C)C)C(=O)N[C@@H](Cc1c[nH]c2ccccc12)C(=O)N[C@H](CC(C)C)C(=O)N[C@@H](Cc1c[nH]c2ccccc12)C(=O)NCCO)C(C)C [compound 903] (For-VGA[dV]A[dV]V[dD](NHMe)W[dV]W[dL]W[dL]W-NHCH2CH2OH) | 1.15 | 89.7 | -
CC(C)C[C@@H](NC(=O)[C@H](C)NC(=O)CNC(=O)[C@@H](NC=O)C(C)C)C(=O)N[C@@H](C)C(=O)N[C@H](CC(C)C)C(=O)N[C@H](C(=O)N[C@@H](C(=O)N[C@@H](Cc1c[nH]c2ccccc12)C(=O)N[C@@H](C(=O)N[C@@H](Cc1c[nH]c2ccccc12)C(=O)N[C@@H](C(=O)N[C@@H](Cc1c[nH]c2ccccc12)C(=O)N[C@H](CC(C)C)C(=O)N[C@@H](Cc1c[nH]c2ccccc12)C(=O)NCCO)C(C)C)C(C)C)C(C)C)C(C)C [compound 905] (For-VGA[dL]A[dL]V[dV]W[dV]W[dV]W[dL]W-NHCH2CH2OH) | 1.19 | 90.6 | +
CC(C)C[C@@H](NC(=O)[C@H](Cc1c[nH]c2ccccc12)NC(=O)[C@@H](CC(C)C)NC(=O)[C@H](Cc1c[nH]c2ccccc12)NC(=O)[C@H](NC(=O)[C@H](Cc1c[nH]c2ccccc12)NC(=O)[C@H](NC(=O)[C@@H](NC(=O)[C@H](NC(=O)[C@H](C)NC(=O)[C@H](NC(=O)[C@H](C)NC(=O)CNC(=O)[C@@H](NC=O)C(C)C)C(C)C)C(C)C)C(C)C)C(C)C)C(C)C)C(=O)N[C@@H](Cc1c[nH]c2ccccc12)C(=O)NCCO [compound 1119] (For-VGA[dV]A[dV]V[dV]W[dV]W[dL]W[dL]W-NHCH2CH2OH) | 1.10 | 100 | -
CNC(=O)C[C@@H](NC(=O)[C@H](Cc1c[nH]c2ccccc12)NC(=O)[C@@H](CC(C)C)NC(=O)[C@@H](NC(=O)[C@@H](CC(C)C)NC(=O)[C@H](C)NC(=O)[C@H](NC(=O)[C@H](C)NC(=O)CNC(=O)[C@@H](NC=O)C(C)C)C(C)C)C(C)C)C(=O)N[C@@H](Cc1c[nH]c2ccccc12)C(=O)N[C@@H](C(=O)N[C@@H](Cc1c[nH]c2ccccc12)C(=O)N[C@@H](C(=O)N[C@@H](Cc1c[nH]c2ccccc12)C(=O)NCCO)C(C)C)C(C)C [compound 1152] (For-VGA[dV]A[dL]V[dL]W[dD](NHMe)W[dV]W[dV]W-NHCH2CH2OH) | 1.05 | 100 | -
CC(C)C[C@@H](NC(=O)[C@@H](NC(=O)[C@H](NC(=O)[C@H](C)NC(=O)[C@H](NC(=O)[C@H](C)NC(=O)CNC(=O)[C@@H](NC=O)C(C)C)[C@H](C)O)C(C)C)C(C)C)C(=O)N[C@@H](Cc1c[nH]c2ccccc12)C(=O)N[C@@H](C(=O)N[C@@H](Cc1c[nH]c2ccccc12)C(=O)N[C@@H](C(=O)N[C@@H](Cc1c[nH]c2ccccc12)C(=O)N[C@@H](C(=O)N[C@@H](Cc1c[nH]c2ccccc12)C(=O)NCCO)C(C)C)C(C)C)[C@H](C)O [compound 1156] (For-VGA[dT]A[dV]V[dL]W[dT]W[dV]W[dV]W-NHCH2CH2OH) | 1.03 | 85.9 | -
CC(C)C[C@@H](NC(=O)[C@H](C)NC(=O)CNC(=O)[C@@H](NC=O)C(C)C)C(=O)N[C@@H](C)C(=O)N[C@H](CC(C)C)C(=O)N[C@H](C(=O)N[C@@H](C(=O)N[C@@H](Cc1c[nH]c2ccccc12)C(=O)N[C@H](CC(C)C)C(=O)N[C@@H](Cc1c[nH]c2ccccc12)C(=O)N[C@@H](C(=O)N[C@@H](Cc1c[nH]c2ccccc12)C(=O)N[C@H](CC(C)C)C(=O)N[C@@H](Cc1c[nH]c2ccccc12)C(=O)NCCO)[C@H](C)O)[C@H](C)O)C(C)C [compound 1176] (For-VGA[dL]A[dL]V[dT]W[dL]W[dT]W[dL]W-NHCH2CH2OH) | 1.01 | 100 | -
CNC(=O)C[C@@H](NC(=O)[C@@H](NC(=O)[C@@H](CC(C)C)NC(=O)[C@H](C)NC(=O)[C@H](NC(=O)[C@H](C)NC(=O)CNC(=O)[C@@H](NC=O)C(C)C)C(C)C)C(C)C)C(=O)N[C@@H](Cc1c[nH]c2ccccc12)C(=O)N[C@H](CC(C)C)C(=O)N[C@@H](Cc1c[nH]c2ccccc12)C(=O)N[C@H](CC(C)C)C(=O)N[C@@H](Cc1c[nH]c2ccccc12)C(=O)N[C@H](CC(C)C)C(=O)N[C@@H](Cc1c[nH]c2ccccc12)C(=O)NCCO [compound 1242] (For-VGA[dV]A[dL]V[dD](NHMe)W[dL]W[dL]W[dL]W-NHCH2CH2OH) | 1.13 | 65.8 | -
CC(C)C[C@@H](NC(=O)[C@H](C)NC(=O)CNC(=O)[C@@H](NC=O)C(C)C)C(=O)N[C@@H](C)C(=O)N[C@@H](C(=O)N[C@H](C(=O)N[C@H](CC(C)C)C(=O)N[C@@H](Cc1c[nH]c2ccccc12)C(=O)N[C@@H](C(=O)N[C@@H](Cc1c[nH]c2ccccc12)C(=O)N[C@H](CC(C)C)C(=O)N[C@@H](Cc1c[nH]c2ccccc12)C(=O)N[C@@H](C(=O)N[C@@H](Cc1c[nH]c2ccccc12)C(=O)NCCO)C(C)C)[C@H](C)O)C(C)C)C(C)C [compound 1253] (For-VGA[dL]A[dV]V[dL]W[dT]W[dL]W[dV]W-NHCH2CH2OH) | 1.03 | 58.1 | -
CC(C)C[C@@H](NC(=O)[C@H](C)NC(=O)[C@H](NC(=O)[C@H](C)NC(=O)CNC(=O)[C@@H](NC=O)C(C)C)C(C)C)C(=O)N[C@H](C(=O)N[C@@H](C(=O)N[C@@H](Cc1c[nH]c2ccccc12)C(=O)N[C@@H](C(=O)N[C@@H](Cc1c[nH]c2ccccc12)C(=O)N[C@H](CC(C)C)C(=O)N[C@@H](Cc1c[nH]c2ccccc12)C(=O)N[C@H](CC(C)C)C(=O)N[C@@H](Cc1c[nH]c2ccccc12)C(=O)NCCO)C(C)C)C(C)C)C(C)C [compound 1406] (For-VGA[dV]A[dL]V[dV]W[dV]W[dL]W[dL]W-NHCH2CH2OH) | 1.04 | 91.1 | +
CNC(=O)C[C@@H](NC(=O)[C@H](C)NC(=O)[C@H](NC(=O)[C@H](C)NC(=O)CNC(=O)[C@@H](NC=O)C(C)C)C(C)C)C(=O)N[C@H](C(=O)N[C@H](CC(C)C)C(=O)N[C@@H](Cc1c[nH]c2ccccc12)C(=O)N[C@H](CC(C)C)C(=O)N[C@@H](Cc1c[nH]c2ccccc12)C(=O)N[C@@H](C(=O)N[C@@H](Cc1c[nH]c2ccccc12)C(=O)N[C@H](CC(C)C)C(=O)N[C@@H](Cc1c[nH]c2ccccc12)C(=O)NCCO)C(C)C)C(C)C [compound 1489] (For-VGA[dV]A[dD](NHMe)V[dL]W[dL]W[dV]W[dL]W-NHCH2CH2OH) | 1.03 | 100 | -
CC(C)C[C@@H](NC(=O)[C@H](Cc1c[nH]c2ccccc12)NC(=O)[C@H](NC(=O)[C@H](Cc1c[nH]c2ccccc12)NC(=O)[C@@H](CC(C)C)NC(=O)[C@H](Cc1c[nH]c2ccccc12)NC(=O)[C@@H](CC(C)C)NC(=O)[C@@H](NC(=O)[C@H](NC(=O)[C@H](C)NC(=O)[C@H](NC(=O)[C@H](C)NC(=O)CNC(=O)[C@@H](NC=O)C(C)C)[C@H](C)O)C(C)C)C(C)C)C(C)C)C(=O)N[C@@H](Cc1c[nH]c2ccccc12)C(=O)NCCO [compound 1509] (For-VGA[dT]A[dV]V[dL]W[dL]W[dV]W[dL]W-NHCH2CH2OH) | 1.10 | 100 | -
CC(C)C[C@@H](NC(=O)[C@H](C)NC(=O)CNC(=O)[C@@H](NC=O)C(C)C)C(=O)N[C@@H](C)C(=O)N[C@@H](C(=O)N[C@H](C(=O)N[C@@H](C(=O)N[C@@H](Cc1c[nH]c2ccccc12)C(=O)N[C@@H](C(=O)N[C@@H](Cc1c[nH]c2ccccc12)C(=O)N[C@@H](C(=O)N[C@@H](Cc1c[nH]c2ccccc12)C(=O)N[C@@H](C(=O)N[C@@H](Cc1c[nH]c2ccccc12)C(=O)NCCO)C(C)C)C(C)C)C(C)C)[C@H](C)O)C(C)C)C(C)C [compound 1520] (For-VGA[dL]A[dV]V[dT]W[dV]W[dV]W[dV]W-NHCH2CH2OH) | 1.04 | 100 | -
